≈ marks a conversion by molar mass, not a printed value. Calls of active or inactive are those of the source. No cut-off for these calls is given here.
Columns and labels:
Assay type in all cases: functional
Escherichia coli = experiment: Antibacterial activity against Escherichia coli assessed as growth inhibition after 24 hr by agar well diffusion method
Bacillus subtilis = experiment: Antibacterial activity against Bacillus subtilis assessed as growth inhibition after 24 hr by agar well diffusion method
Aspergillus flavus = experiment: Antifungal activity against Aspergillus flavus assessed as growth inhibition after 48 hr by broth dilution method
Aspergillus fumigatus = experiment: Antifungal activity against Aspergillus fumigatus assessed as growth inhibition after 48 hr by broth dilution method
Alternaria alternata = experiment: Antifungal activity against Alternaria alternata assessed as growth inhibition after 48 hr by broth dilution method
Salmonella typhi = experiment: Antibacterial activity against Salmonella enterica subsp. enterica serovar Typhi assessed as growth inhibition after 24 hr by agar well diffusion method
Pseudomonas aeruginosa = experiment: Antibacterial activity against Pseudomonas aeruginosa assessed as growth inhibition after 24 hr by agar well diffusion method
Shigella flexneri = experiment: Antibacterial activity against Shigella flexneri assessed as growth inhibition after 24 hr by agar well diffusion method; for DIZ: test concentration or dose not given here
Staphylococcus aureus = experiment: Antibacterial activity against Staphylococcus aureus assessed as growth inhibition after 24 hr by agar well diffusion method

Compound	diameter of the inhibition zone (DIZ) (Escherichia coli)	diameter of the inhibition zone (DIZ) (Bacillus subtilis)	MIC (Aspergillus flavus)	MIC (Aspergillus fumigatus)	MIC (Alternaria alternata)	growth inhibition (GI) (Salmonella typhi)	growth inhibition (GI) (Pseudomonas aeruginosa)	diameter of the inhibition zone (DIZ) (Shigella flexneri)	growth inhibition (GI) (Staphylococcus aureus)	growth inhibition (GI) (Shigella flexneri)	diameter of the inhibition zone (DIZ) (Staphylococcus aureus)	growth inhibition (GI) (Bacillus subtilis)	diameter of the inhibition zone (DIZ) (Pseudomonas aeruginosa)	diameter of the inhibition zone (DIZ) (Salmonella typhi)
Nc1nc(-c2ccc(Cl)cc2)cc(-c2ccc(-n3ccnc3)cc2)n1	18 mm	12 mm	1000 µg/mL (≈ 2880 µM)	1000 µg/mL (≈ 2880 µM)	1000 µg/mL (≈ 2880 µM)	inactive	inactive	11 mm	inactive	–	–	–	–	–
Nc1nc(-c2ccccc2)cc(-c2ccc(-n3ccnc3)cc2)n1	11 mm	13 mm	1000 µg/mL (≈ 3190 µM)	1000 µg/mL (≈ 3190 µM)	> 1000 µg/mL	inactive	inactive	–	inactive	inactive	–	–	–	–
Nc1nc(-c2ccc(-n3ccnc3)cc2)cc(-c2ccc(Cl)c(Cl)c2Cl)n1	18 mm	15 mm	> 1000 µg/mL	> 1000 µg/mL	> 1000 µg/mL	inactive	inactive	11 mm	–	–	15 mm	–	–	–
COc1cccc(-c2cc(-c3ccc(-n4ccnc4)cc3)nc(N)n2)c1	13 mm	–	1000 µg/mL (≈ 2910 µM)	> 1000 µg/mL	1000 µg/mL (≈ 2910 µM)	inactive	–	–	–	inactive	14 mm	inactive	12 mm	–
COc1ccc(-c2cc(-c3ccc(-n4ccnc4)cc3)nc(N)n2)cc1	12 mm	14 mm	> 1000 µg/mL	1000 µg/mL (≈ 2910 µM)	> 1000 µg/mL	inactive	–	11 mm	inactive	–	–	–	11 mm	–
Nc1nc(-c2ccc(I)cc2)cc(-c2ccc(-n3ccnc3)cc2)n1	20 mm	21 mm	1000 µg/mL (≈ 2280 µM)	1000 µg/mL (≈ 2280 µM)	1000 µg/mL (≈ 2280 µM)	inactive	inactive	–	–	inactive	16 mm	–	–	–
Nc1nc(-c2ccc(Br)cc2)cc(-c2ccc(-n3ccnc3)cc2)n1	12 mm	13 mm	1000 µg/mL (≈ 2550 µM)	1000 µg/mL (≈ 2550 µM)	> 1000 µg/mL	inactive	inactive	12 mm	–	–	12 mm	–	–	–
C[C@@H](O)[C@H]1C(=O)N2C(C(=O)O)=C(SCCNC=N)C[C@H]12 [IMIPENEM ANHYDROUS]	35 mm	30 mm	–	–	–	–	–	30 mm	–	–	30 mm	–	31 mm	25 mm
COc1cc(-c2cc(-c3ccc(-n4ccnc4)cc3)nc(N)n2)ccc1OO	15 mm	–	1000 µg/mL (≈ 2660 µM)	> 1000 µg/mL	> 1000 µg/mL	inactive	–	–	–	inactive	13 mm	inactive	10 mm	–
Nc1nc(-c2ccc(F)cc2)cc(-c2ccc(-n3ccnc3)cc2)n1	16 mm	–	1000 µg/mL (≈ 3020 µM)	500 µg/mL (≈ 1510 µM)	1000 µg/mL (≈ 3020 µM)	inactive	inactive	12 mm	inactive	–	–	inactive	–	–
Nc1nc(-c2ccc(-n3ccnc3)cc2)cc(-c2ccc(Cl)cc2Cl)n1	14 mm	–	> 1000 µg/mL	> 1000 µg/mL	1000 µg/mL (≈ 2620 µM)	inactive	inactive	10 mm	–	–	11 mm	inactive	–	–
Nc1nc(-c2ccc(-n3ccnc3)cc2)cc(-c2cc(Cl)ccc2Cl)n1	12 mm	12 mm	> 1000 µg/mL	> 1000 µg/mL	> 1000 µg/mL	inactive	inactive	12 mm	inactive	–	–	–	–	–
